In ChEMBL document CHEMBL1201862, “PubChem BioAssay data set” (2004):
“And” between values parts separate entries of the source, which are not always exact repeats. Identical values can stand only once. The source made the active and inactive calls.

Key:
[1] = target: Cytochrome P450 3A4 (Homo sapiens, UniProt P08684);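 also: CYP3A4 tested as one member of a cytochrome P450 panel screen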
[2] = target: T1, Ubiquitin-conjugating enzyme E2 N (Homo sapiens, UniProt P61088); assay type: functional;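 also: Dose-response confirmation in a TR-FRET assay detecting UBC13-driven polyubiquitin chain formation, inhibition measured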
T1 sequence (P61088 whole entry): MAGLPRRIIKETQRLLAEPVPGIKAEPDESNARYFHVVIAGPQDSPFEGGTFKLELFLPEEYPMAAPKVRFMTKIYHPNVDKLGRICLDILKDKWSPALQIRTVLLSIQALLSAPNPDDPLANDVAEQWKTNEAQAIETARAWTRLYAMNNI

[3] = fluconazole-exposed Candida albicans growth modulators – fluorescence, retest, confirmation (AID 2467); assay type: functional, cell-based
[4] = NIH-3T3 fibroblast cytotoxicity, dose response, cytotoxicity control, cell-based, fluorescence, Alamar Blue, secondary assay (AID 2327); assay type: functional;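 also: NIH-3T3 mouse fibroblasts cultured with fluconazole at 8 µg/mL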
[5] = target: Cytochrome P450 2C9 (Homo sapiens, UniProt P11712)
Cytochrome P450 2C9, sequence (P11712 whole entry): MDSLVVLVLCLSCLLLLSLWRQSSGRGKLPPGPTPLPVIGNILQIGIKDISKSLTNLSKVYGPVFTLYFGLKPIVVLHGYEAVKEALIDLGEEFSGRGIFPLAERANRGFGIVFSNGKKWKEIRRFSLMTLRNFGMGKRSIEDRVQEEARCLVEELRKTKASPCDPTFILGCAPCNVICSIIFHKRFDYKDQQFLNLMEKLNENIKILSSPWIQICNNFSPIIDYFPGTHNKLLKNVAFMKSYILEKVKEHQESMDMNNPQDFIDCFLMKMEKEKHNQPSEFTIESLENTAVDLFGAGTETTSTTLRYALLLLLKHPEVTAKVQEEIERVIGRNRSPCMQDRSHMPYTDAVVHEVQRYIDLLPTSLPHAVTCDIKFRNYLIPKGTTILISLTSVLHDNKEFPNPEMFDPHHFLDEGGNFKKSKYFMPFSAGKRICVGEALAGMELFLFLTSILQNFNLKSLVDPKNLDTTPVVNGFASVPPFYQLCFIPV

[6] = test system: H4; test: Luminescence Cell-Based Dose Response HTS to Identify Activators of 5'UTR Stem-Loop Driven Prion Protein mRNA Translation in H4 Neuroglioblastoma Cells. [Related pubchem assays: 1829 (Project Summary), 1814 (Primary HTS)]; assay type: functional; details: Homo sapiens
[7] = test system: INS1; test: INS-1E survival protection against cytokine death – cell-based, luminescence, retest, dose response (AID 449756); assay type: functional; details: Rattus norvegicus;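 also: cell death triggered by IL-1 beta plus TNF-alpha plus IFN-gamma mixture; protective hits raise ATP signal compared with cytokine alone wells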
[8] = target: T2, Heat shock factor protein 1 (Mus musculus, UniProt P38532); test: enhancement of HSF1-driven luciferase signal – cell-based, NIH3T3, luminescence, dose retest, confirmation (AID 435004); assay type: functional;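 also: stress induced by proteasome inhibitor MG132 added 30 min after compound; luciferase reporter driven by HSF1 response element in NIH3T3 cells; actives raise luminescence as potentiators of the MG132 stress response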
T2 sequence (P38532 whole entry): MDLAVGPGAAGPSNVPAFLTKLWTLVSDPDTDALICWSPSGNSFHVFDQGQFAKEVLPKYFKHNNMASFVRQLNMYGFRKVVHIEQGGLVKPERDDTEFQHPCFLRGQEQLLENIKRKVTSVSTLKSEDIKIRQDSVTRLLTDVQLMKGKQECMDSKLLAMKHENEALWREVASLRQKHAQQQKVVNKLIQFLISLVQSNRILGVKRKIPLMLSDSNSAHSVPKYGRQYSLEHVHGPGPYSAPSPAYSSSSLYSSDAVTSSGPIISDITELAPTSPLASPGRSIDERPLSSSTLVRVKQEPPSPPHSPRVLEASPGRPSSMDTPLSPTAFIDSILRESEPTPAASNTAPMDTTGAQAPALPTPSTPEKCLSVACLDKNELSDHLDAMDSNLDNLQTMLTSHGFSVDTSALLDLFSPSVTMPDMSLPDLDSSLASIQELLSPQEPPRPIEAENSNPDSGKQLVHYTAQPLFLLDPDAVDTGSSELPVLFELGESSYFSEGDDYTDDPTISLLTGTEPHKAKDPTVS

[9] = Trypanosoma cruzi growth suppression in host cells – NIH3T3 host cells, beta-gal luminescence, confirmation (AID 2044); assay type: functional, cell-based;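 also: intracellular parasites grown in NIH/3T3 mouse fibroblasts as host cells; luminescent beta-galactosidase reporter signal from transgenic T. cruzi replicating inside host cells; inhibitors lower the luminescence signal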
[10] = NIH3T3 cell viability loss – ATP luminescence, mouse fibroblasts, counter-screen, dose response (AID 2010); assay type: functional, cell-based;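 also: cells exposed to compound for about 90 hours before reading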
[11] = target: Cytochrome P450 2C19 (Homo sapiens, UniProt P33261); test: Cytochrome panel assay with activity outcomes. Panel member name: p450-cyp2c19 Compounds with AC50 equal or less than 10 uM are considered active; assay type: functional; details: read-out: AC50
Cytochrome P450 2C19, sequence (P33261 whole entry): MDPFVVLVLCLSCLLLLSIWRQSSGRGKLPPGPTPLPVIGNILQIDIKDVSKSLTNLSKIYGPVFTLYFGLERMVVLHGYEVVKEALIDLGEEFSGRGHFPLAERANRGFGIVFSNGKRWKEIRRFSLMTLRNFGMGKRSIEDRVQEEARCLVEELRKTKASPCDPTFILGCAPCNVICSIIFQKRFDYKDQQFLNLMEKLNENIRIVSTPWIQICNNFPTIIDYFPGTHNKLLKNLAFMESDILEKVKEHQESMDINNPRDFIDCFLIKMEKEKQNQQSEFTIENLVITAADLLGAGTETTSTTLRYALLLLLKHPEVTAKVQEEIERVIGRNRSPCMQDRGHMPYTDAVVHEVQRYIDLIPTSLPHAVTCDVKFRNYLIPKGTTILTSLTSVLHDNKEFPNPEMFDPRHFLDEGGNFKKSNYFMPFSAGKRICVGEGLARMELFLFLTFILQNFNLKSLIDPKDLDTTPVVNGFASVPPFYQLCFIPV

[12] = reduction of Shn3 3'UTR-driven luciferase in osteoblasts – cell-based, Clone20 osteoblasts, firefly luciferase, cherry-picked, dose response (AID 624132); assay type: functional;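 also: firefly luciferase luminescence from reporter carrying the Shn3 3'UTR in osteoblasts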
[13] = target: T3, Cytochrome P450 1A2 (Homo sapiens, UniProt P05177);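 also: PubChem cytochrome P450 panel assay, CYP1A2 panel member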
T3 sequence (P05177 whole entry): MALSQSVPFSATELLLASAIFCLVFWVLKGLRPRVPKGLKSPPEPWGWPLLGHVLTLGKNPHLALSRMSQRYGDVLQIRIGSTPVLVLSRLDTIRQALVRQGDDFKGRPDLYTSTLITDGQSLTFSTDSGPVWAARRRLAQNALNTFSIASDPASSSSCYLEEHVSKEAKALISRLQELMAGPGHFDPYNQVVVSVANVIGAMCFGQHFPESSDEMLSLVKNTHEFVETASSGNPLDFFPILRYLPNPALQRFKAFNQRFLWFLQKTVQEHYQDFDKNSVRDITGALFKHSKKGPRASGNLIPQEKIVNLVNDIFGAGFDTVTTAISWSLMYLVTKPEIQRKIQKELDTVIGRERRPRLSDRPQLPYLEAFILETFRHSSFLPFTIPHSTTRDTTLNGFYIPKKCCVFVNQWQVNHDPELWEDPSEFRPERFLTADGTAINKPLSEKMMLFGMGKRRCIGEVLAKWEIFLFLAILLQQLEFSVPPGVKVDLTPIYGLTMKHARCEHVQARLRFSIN

[14] = target: Paired box protein Pax-8 (Homo sapiens, UniProt Q06710); test: PAX8 transcriptional activity inhibition in RMG-I – RMG-I cells, luciferase, cherry-pick, dose response (AID 687027); assay type: functional, cell-based;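 also: luciferase reporter driven by Pax8 target thyroperoxidase promoter measured by SteadyGlo luminescence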
Paired box protein Pax-8, sequence (Q06710 whole entry): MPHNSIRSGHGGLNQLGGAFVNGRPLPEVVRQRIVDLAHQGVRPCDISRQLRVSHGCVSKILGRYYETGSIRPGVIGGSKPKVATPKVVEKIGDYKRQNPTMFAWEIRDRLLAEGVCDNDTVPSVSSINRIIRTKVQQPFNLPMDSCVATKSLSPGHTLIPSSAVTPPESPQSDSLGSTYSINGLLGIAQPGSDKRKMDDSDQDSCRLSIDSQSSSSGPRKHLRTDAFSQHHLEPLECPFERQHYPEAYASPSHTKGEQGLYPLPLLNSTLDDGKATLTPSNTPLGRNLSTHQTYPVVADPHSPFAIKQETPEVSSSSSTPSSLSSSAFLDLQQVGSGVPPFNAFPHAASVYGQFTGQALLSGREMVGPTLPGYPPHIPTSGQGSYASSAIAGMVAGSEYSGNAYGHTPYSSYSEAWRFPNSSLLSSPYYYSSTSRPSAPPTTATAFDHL

[15] = test system: Streptococcus; test: GAS UMAA2166 growth inhibition – luminescence, BacTiterGlo, counter-screen for streptokinase expression inhibitor project, dose response (AID 1915); assay type: functional, organism-based;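 also: potency for reduction of bacterial viability or growth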
[16] = test system: Streptococcus sp. 'group A'; test: Streptococcus pyogenes SK(-)GAS viability under kanamycin – luminescence, BacTiterGlo, confirmation, counter-screen for streptokinase expression inhibitor project, dose response (AID 1900); assay type: functional, organism-based
[17] = Luminescence Cell-Based Dose Response HTS to Identify Activators of Luciferase Translation or Activity in H4 […] Cells. [Related pubchem assays: 1829 (Project Summary), 1814 (Primary HTS)]; assay type: functional

Cytochrome P450 3A4, sequence (P08684 whole entry): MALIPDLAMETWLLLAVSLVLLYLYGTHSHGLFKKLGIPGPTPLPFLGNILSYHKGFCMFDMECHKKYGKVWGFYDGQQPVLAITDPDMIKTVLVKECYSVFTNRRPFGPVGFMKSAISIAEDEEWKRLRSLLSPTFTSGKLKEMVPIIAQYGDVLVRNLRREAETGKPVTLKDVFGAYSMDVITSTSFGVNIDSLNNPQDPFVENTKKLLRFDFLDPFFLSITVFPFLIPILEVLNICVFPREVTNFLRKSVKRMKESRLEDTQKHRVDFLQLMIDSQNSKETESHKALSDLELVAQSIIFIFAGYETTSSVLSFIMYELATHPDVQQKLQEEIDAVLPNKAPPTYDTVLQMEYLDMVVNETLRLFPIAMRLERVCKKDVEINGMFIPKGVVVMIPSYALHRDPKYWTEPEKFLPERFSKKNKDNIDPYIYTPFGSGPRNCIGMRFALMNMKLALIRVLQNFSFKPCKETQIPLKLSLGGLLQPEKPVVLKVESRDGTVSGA

## C[C@@]1(C(NC(=O)Cc2ccccc2)c2ccc(-c3ccccc3)cc2)C[C@H]1C1CCCCC1 (stereo partly specified)
[1]
  AC50: 15.8 µM (inconclusive)

## Cc1cccc(N(C(=O)c2snc(C(N)=O)c2N)C(C(=O)NCC2CCCO2)c2c[nH]c3ccccc23)c1 (stereo unspecified)
[2]
  IC50: > 20 µM (inactive)

## COC(=O)C1=C(C)N(Cc2ccccc2)C(NCCc2ccccn2)=N[C@H]1c1cccc(C(F)(F)F)c1
[2]
  IC50: > 20 µM (inactive)

## O=C(COC(=O)Cn1cnc2ccccc2c1=O)NCc1ccccc1Cl
[2]
  IC50: > 20 µM (inactive)

## CCCn1c(=N)n(CC(=O)c2ccc([N+](=O)[O-])cc2)c2ccccc21
[3]
  EC50: > 38 µM (not active)
[4]
  EC50: 10.5 µM (active)

## COc1ccc(CN2CN=C(Nc3nc4ccccc4s3)NC2)cc1
[5]
  AC50: 20 µM (inconclusive)
[1]
  AC50: 10 µM (inconclusive)

## CCN(CC)c1ccc(/C=C/C(=O)c2cccnc2)cc1
[3]
  EC50: 0.065 µM (active)
[4]
  EC50: > 150 µM (inactive)

## CCC/C=C(\CCC)C(NS(=O)(=O)c1ccc(C(F)(F)F)cc1)c1ccc(-c2ccccc2)cc1 (stereo unspecified)
[1]
  AC50: 3.98 µM (inconclusive)

## O=C(Nc1nccs1)c1cc2c(s1)-c1ccccc1OC2
[6]
  EC50: > 120 µM (not active)

## Cc1cc(C(=O)c2ccc3ccccc3c2)c(C)o1
[7]
  AC50: > 260 µM (inactive)

## Cc1cc(C)cc(-n2nnnc2-c2cn(C)nc2C(F)(F)F)c1
[1]
  AC50: 15.8 µM (inconclusive)

## Cc1nn(C)cc1/C=N\NC(=O)c1ccc2c(c1)c(C)c(C)n2Cc1ccccc1
[8]
  EC50: 67.7 µM (active)

## CN(C)c1nc(N)c(C(=O)NC(=N)N)nc1Cl
[1]
  AC50: 10 µM (inconclusive)

## Oc1ccc(Cl)cc1Nc1nc(NCC2CCCO2)c2ccccc2n1 (stereo unspecified)
[2]
  IC50: > 20 µM (inactive)

## Cc1ccccc1OCC(O)CN1CCN(CCN2C(=O)c3cccc4cccc(c34)C2=O)CC1 (stereo unspecified)
[9]
  EC50: 0.851 µM (active)
[2]
  IC50: > 20 µM (inactive)
[10]
  EC50: > 60 µM (inconclusive)

## COCCn1c(=O)c(-c2ccc(F)cc2)nc2cnc(OCc3ccccc3)nc21
[5]
  AC50: 20 µM (inconclusive)
[11]
  AC50: 10 µM (inconclusive)
[1]
  AC50: 12.6 µM (inconclusive)

## COCCNc1ccnc(-c2c(C)noc2C)n1
[1]
  AC50: 31.6 µM (inconclusive)

## CCC(=O)Nc1c(S(=O)(=O)c2ccccc2)c2nc3ccccc3nc2n1C(C)c1ccccc1 (stereo unspecified)
[8]
  EC50: > 260 µM (inactive)

## Cc1ccc2c(c1)c(C)c(C)n2CC(O)Cn1nc(C)c(Br)c1C (stereo unspecified)
[8]
  EC50: > 260 µM (inactive)

## CN(C)CC(O)COc1cc2ccccc2cc1C(=O)N1CCCCC1 (stereo unspecified)
[4]
  EC50: > 150 µM (inactive)

## CC(=O)O[C@H]1CC[C@H]2[C@@H]3CC[C@H]4[C@@H](O)[C@H](O)CC[C@]4(C)[C@H]3CC[C@]12C
[12]
  AC50: > 70 µM (inactive)

## COc1cc(NC(=O)c2cc([N+](=O)[O-])ccc2Br)ccc1NC(=O)c1ccco1
[8]
  EC50: 9.95 µM (active)

## CS(=O)(=O)N1CCC2(CCCN(C(=O)Nc3cccc(C#N)c3)C2)CC1
[1]
  AC50: 25.1 µM (inconclusive)

## C=CCN1CC[C@@]23c4c5ccc(O)c4O[C@H]2/C(=N\N=C2/CC[C@@]4(O)[C@H]6Cc7ccc(O)c8c7[C@@]4(CCN6CC=C)[C@@H]2O8)CC[C@]3(O)[C@@H]1C5
[1]
  AC50: 31.6 µM (inconclusive) and 25.1 µM (inconclusive)

## CC(C)NC(=Nc1ccc(Cl)cc1)c1cccnc1
[11]
  AC50: 6.31 µM (inconclusive)
[1]
  AC50: 22.4 µM (inconclusive)

## COc1ccc(/C=N/NC(=O)c2ccc(-c3ccccc3)cc2)cc1O
[3]
  EC50: 0.036 µM (active)
[4]
  EC50: > 150 µM (inactive)

## O=C(N/N=C1\CC(c2ccccc2)Oc2ccccc21)c1ccc(O)cc1 (stereo unspecified)
[8]
  EC50: > 260 µM (inactive)

## C/C(CC(=O)NCc1ccco1)=N\NC(=O)Cc1ccc(Cl)cc1
[5]
  AC50: 25.1 µM (inconclusive)
[11]
  AC50: 22.4 µM (inconclusive)
[13]
  AC50: 20 µM (inconclusive)
[1]
  AC50: 15.8 µM (inconclusive)

## O=C(Nc1ccc(Cl)c(Cl)c1)N[C@@H]1CC[C@H](CCn2cc(C3CCCCC3)nn2)O[C@H]1CO
[14]
  AC50: 19.7 µM (active)

## CCOC(=O)CSc1cc(-c2ccccc2)nc2ncnn12
[8]
  EC50: 22.8 µM (active)

## C#CCOCCOCCOCCNc1nc(N2CCN(C(=O)C([C@@H](C)O)n3cc([C@@H](N)CCCCN)nn3)CC2)nc(N2CCN(C(=O)C([C@@H](C)O)n3cc([C@@H](N)CCCCN)nn3)CC2)n1 (stereo partly specified)
[2]
  IC50: > 20 µM (inactive)

## COc1cc(-c2nnc(NC(=O)c3ccc(S(=O)(=O)N4CCOCC4)cc3)o2)cc(OC)c1OC
[3]
  EC50: 5.71 µM (active)
[4]
  EC50: > 160 µM (inactive)

## Cc1ccc(-c2nnc(N(C)C(=O)c3cccnc3)s2)cc1
[11]
  AC50: 3.16 µM (inconclusive)
[13]
  AC50: 10 µM (inconclusive)
[1]
  AC50: 17.8 µM (inconclusive)

## Cc1nnc(SCC2=C(C(=O)O)N3C(=O)C(NC(=O)Cn4ncc(Cl)c4C)C3SC2)s1 (stereo unspecified)
[15]
  EC50: 0.117 µM (active)
[16]
  EC50: < 0.06 µM (active)

## CCc1ccc(C(=O)NNc2ccc(F)cc2F)cc1
[3]
  EC50: > 38 µM (not active)
[4]
  EC50: > 150 µM (inactive)

## CCN1CCN(c2cc(C)c3cc(NC(=S)N4CCN(c5ccc(F)cc5)CC4)ccc3n2)CC1
[2]
  IC50: > 20 µM (inactive)

## COc1ccc(/C=C2\OC(=O)c3c(OC)cccc32)cc1OC
[6]
  EC50: 22.4 µM (active)
[17]
  EC50: 7.38 µM (active)
[1]
  AC50: 10 µM (inconclusive)

## COc1ccc(Cc2nn3c(O)cc(C(C)C)nc3c2-c2ccccc2)cc1
[15]
  EC50: 4.68 µM (active)
[16]
  EC50: 1.78 µM (active)

## O=C(Nc1nnc(C2CC2)s1)c1ccc(S(=O)(=O)c2ccccc2)cc1
[5]
  AC50: 0.794 µM (inconclusive)
[11]
  AC50: 7.08 µM (inconclusive)

## COCCCn1c(=S)[nH]c2ncccc2c1=O
[5]
  AC50: 0.00562 µM (inconclusive)
[11]
  AC50: 0.501 µM (inconclusive)

## O=C(N/N=C/c1ccc[nH]1)c1cc2ccccc2cc1O
[3]
  EC50: > 38 µM (not active)
[4]
  EC50: > 160 µM (inactive)

## N#C/C(=C\NC(=S)c1ccncc1)c1nc2ccccc2s1
[5]
  AC50: 6.31 µM (inconclusive)
[1]
  AC50: 2.51 µM (inconclusive)

## Cc1ccc(N2C(=O)CSC2c2cccnc2)c(Cl)c1 (stereo unspecified)
[7]
  AC50: > 260 µM (inactive)

## Oc1ccc(Cl)cc1C1=NNC(c2ccc(Cl)cc2)C1 (stereo unspecified)
[15]
  EC50: 5.5 µM (active)
[16]
  EC50: 2.78 µM (active)

## COc1ccc(NC(=O)CSc2nc(O)cc(=O)n2-c2ccc(OC)cc2)cc1
[15]
  EC50: 26 µM (inconclusive)
[16]
  EC50: 13.9 µM (active)

## COc1ccc(NC(=O)CCOc2cc(C)ccc2C)cc1S(=O)(=O)N1CCCCC1
[12]
  AC50: 10.4 µM (active)

## CN1c2ccc(C#Cc3cccnc3)cc2[C@@H]2[C@@H](CCN2C(=O)Cc2cccnc2)[C@@H]1CO
[14]
  AC50: 57.2 µM (active)

## COC(=O)c1cc(OC)c(OC)cc1NC(=O)CSc1ccccc1
[5]
  AC50: 20 µM (inconclusive)
[1]
  AC50: 15.8 µM (inconclusive)

## COC(=O)[C@@H]1[C@@H](O)[C@@]2(O)c3c(OC)cc(OC)cc3O[C@@]2(c2ccc(OC)cc2)[C@H]1c1ccccc1
[1]
  AC50: 10 µM (inconclusive)
